Assay results: patent US10301261B2, “Substituted indoles as modulators of ROR-gamma” (Vitae Pharmaceuticals, LLC, priority 2015, dated 2019)

Assays:
[1] = molecular target: full-length RORγt in Jurkat cells (Homo sapiens (Human), UniProt P51449); assay: RORγt 5×RORE Assay in Jurkat Cells (Assay 2); format: cell-based; conditions: RORγt 5×RORE Nanoluc reporter
Protocol: [formula] RORγt 5×RORE Assay in Jurkat Cells (Assay 2)
Compounds described herein were tested for RORγ inverse agonist activity in a cell-based, transcriptional activity assay. […] (Promega, Cat. # N1021) using KpnI and HindIII restriction sites. […] Tested compounds were added to the cells in the same media (final concentration of DMSO was 0.1% (v/v)), and the plates were incubated at 37° C./5% CO2 for 16-18 hrs. Luciferase activity in the conditioned supernatants was determined with NanoGlo® assay reagents (Promega, Cat.# N1130).

[2] = molecular target: recombinant RORγ Ligand Binding Domain (LBD) protein (Homo sapiens (Human), UniProt P51449); assay: Radio-Ligand RORγ Binding Assay (Assay 1); conditions: radio-ligand 25-hydroxy [26,27-3H]-cholesterol competition
Chain of recombinant RORγ Ligand Binding Domain (LBD) protein (P51449 269-508): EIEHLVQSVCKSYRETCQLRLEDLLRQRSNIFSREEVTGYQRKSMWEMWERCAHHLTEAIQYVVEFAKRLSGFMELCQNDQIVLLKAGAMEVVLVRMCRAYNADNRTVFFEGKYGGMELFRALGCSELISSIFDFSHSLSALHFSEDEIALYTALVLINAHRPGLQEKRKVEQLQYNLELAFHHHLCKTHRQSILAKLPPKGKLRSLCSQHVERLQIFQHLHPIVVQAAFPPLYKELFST
Protocol: Radio-Ligand RORγ Binding Assay (Assay 1)
Compounds described herein were tested for ability to bind to RORγ in a cell-free competition assay with commercially available radio-ligand (RL), 25-hydroxy [26,27-^3H]-cholesterol (PerkinElmer, Cat. # NET674250UC), for a ligand binding site on a recombinant RORγ Ligand Binding Domain (LBD) protein expressed as a 6×His-Glutathione-S-Transferase (GST) fusion. […] The plate was shaken at 700 rpm for 20 min and incubated for 10 min at rt, after which 40 μL of poly-Lys YSi SPA beads (PerkinElmer, Cat. # RPNQ0010) were added to achieve 50 μg of the beads per well. The plate was incubated on an orbital shaker for 20 min and then for 10 min without agitation at rt. SPA signal for tritium beta radiation was registered on PerkinElmer Microbeta plate reader. […] The percent inhibition vs. concentration data were fit into a four-parameter model, and IC50 values were calculated from the fit as the concentrations corresponding to the inflection points on the dose-response curves. […]

Chain of full-length RORγt in Jurkat cells (P51449 other isoform, or with tags, fused parts or gaps): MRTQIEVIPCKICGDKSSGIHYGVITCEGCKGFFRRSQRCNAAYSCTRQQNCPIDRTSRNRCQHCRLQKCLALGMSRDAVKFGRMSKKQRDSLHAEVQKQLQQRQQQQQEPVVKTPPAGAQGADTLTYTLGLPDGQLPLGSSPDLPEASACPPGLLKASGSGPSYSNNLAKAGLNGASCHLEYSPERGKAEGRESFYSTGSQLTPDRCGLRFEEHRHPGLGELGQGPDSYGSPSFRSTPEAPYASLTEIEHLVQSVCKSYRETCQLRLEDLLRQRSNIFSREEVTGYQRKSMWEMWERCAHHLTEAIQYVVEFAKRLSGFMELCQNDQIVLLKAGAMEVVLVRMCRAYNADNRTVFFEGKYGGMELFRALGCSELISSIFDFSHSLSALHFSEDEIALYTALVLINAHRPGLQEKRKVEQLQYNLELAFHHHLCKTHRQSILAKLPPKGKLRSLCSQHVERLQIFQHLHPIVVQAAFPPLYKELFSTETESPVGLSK

Row | Compound | IC50 [1] [nM] | Ki [2] [nM]
1 | CCn1c(C(=O)c2ccc(C(F)(F)F)cn2)cc2cc(C(=O)N[C@@H](CO)c3ccc(S(=O)(=O)CC)cc3)ccc21 [IN-22, (R)-1-ethyl-N-(1-(4-(ethylsulfonyl)phenyl)-2-hydroxyethyl)-2-(5-(trifluoromethyl)picolinoyl)-1H-indole-5-carboxamide] | < 100 | < 100
2 | CCS(=O)(=O)c1ccc(CNC(=O)c2ccc3c(c2)nc(Oc2ccc(C(F)(F)F)cc2)n3C2CC2)cc1 [BE-6, 1-cyclopropyl-N-(4-(ethylsulfonyl)benzyl)-2-(4-(trifluoromethyl)phenoxy)-1H-benzo[d]imidazole-5-carboxamide] | < 100 | < 100
3 | CCn1c(OCC2CCC(F)(F)CC2)nc2cc(C(=O)N[C@@H](CO)c3ccc(S(=O)(=O)CC)cc3)ccc21 [BE-12, (R)-2-((4,4-difluorocyclohexyl)methoxy)-1-ethyl-N-(1-(4-(ethylsulfonyl)phenyl)-2-hydroxyethyl)-1H-benzo[d]imidazole-5-carboxamide] | > 1000 | < 100
4 | CNS(=O)(=O)c1ccc(CNC(=O)c2ccc3c(c2)nc(C[C@H]2CC[C@H](C(F)(F)F)CC2)n3C2CC2)nc1 [BE-31, 1-cyclopropyl-N-((5-(N-methylsulfamoyl)pyridin-2-yl)methyl)-2-(((1r,4r)-4-(trifluoromethyl)cyclohexyl)methyl)-1H-benzo[d]imidazole-5-carboxamide] | > 1000 | < 100
5 | CCn1c(Cc2ccc(C(F)(F)F)cc2)cc2cc(C(=O)N[C@@H](CO)c3ccc(S(=O)(=O)CC)cc3)ccc21 [IN-3, (R)-1-ethyl-N-(1-(4-(ethylsulfonyl)phenyl)-2-hydroxyethyl)-2-(4-(trifluoromethyl)benzyl)-1H-indole-5-carboxamide] | < 100 | < 100
6 | CCn1c(Cc2ccc(C#N)cc2)cc2cc(C(=O)N[C@@H](CO)c3ccc(S(=O)(=O)CC)cn3)ccc21 [IN-21, (R)-2-(4-cyanobenzyl)-1-ethyl-N-(1-(5-(ethylsulfonyl)pyridin-2-yl)-2-hydroxyethyl)-1H-indole-5-carboxamide] | 100 to 1000 | < 100
7 | CCn1c(OCC2CC(F)(F)C2)nc2cc(C(=O)N[C@@H](CO)c3ccc(S(=O)(=O)CC)cc3)ccc21 [BE-13, (R)-2-((3,3-difluorocyclobutyl)methoxy)-1-ethyl-N-(1-(4-(ethylsulfonyl)phenyl)-2-hydroxyethyl)-1H-benzo[d]imidazole-5-carboxamide] | > 1000 | < 100
8 | CCS(=O)(=O)c1ccc([C@H](CO)NC(=O)c2ccc3c(c2)nc(O[C@H]2CC[C@H](C(F)(F)F)CC2)n3C2CC2)cc1 [BE-1, 1-cyclopropyl-N-((R)-1-(4-(ethylsulfonyl)phenyl)-2-hydroxyethyl)-2-(((1r,4R)-4-(trifluoromethyl)cyclohexyl)oxy)-1H-benzo[d]imidazole-5-carboxamide] | < 100 | < 100
9 | CCS(=O)(=O)c1ccc([C@H](CO)NC(=O)c2ccc3c(c2)nc(C[C@H]2CC[C@H](C(F)(F)F)CC2)n3C2CC2)nc1 [BE-28, 1-cyclopropyl-N-((R)-1-(5-(ethylsulfonyl)pyridin-2-yl)-2-hydroxyethyl)-2-(((1r,4R)-4-(trifluoromethyl)cyclohexyl)methyl)-1H-benzo[d]imidazole-5-carboxamide] | < 100 | < 100
10 | CCn1c(OCc2ccc(C(F)(F)F)cc2)nc2cc(C(=O)N[C@@H](CO)c3ccc(S(=O)(=O)CC)cc3)ccc21 [BE-14, (R)-1-ethyl-N-(1-(4-(ethylsulfonyl)phenyl)-2-hydroxyethyl)-2-((4-(trifluoromethyl)benzyl)oxy)-1H-benzo[d]imidazole-5-carboxamide] | < 100 | < 100
11 | CCS(=O)(=O)c1ccc([C@H](CO)NC(=O)c2ccc3c(c2)cc(CN2CCC(C(F)(F)F)CC2)n3C2CC2)cc1 [IN-13, (R)-1-cyclopropyl-N-(1-(4-(ethylsulfonyl)phenyl)-2-hydroxyethyl)-2-((4-(trifluoromethyl)piperidin-1-yl)methyl)-1H-indole-5-carboxamide] | < 100 | < 100
12 | CCn1c(O[C@H]2CC[C@H](C(F)(F)F)CC2)nc2cc(C(=O)NCc3ccc(S(=O)(=O)CC)cc3)ccc21 [BE-2, 1-ethyl-N-(4-(ethylsulfonyl)benzyl)-2-(((1r,4r)-4-(trifluoromethyl)cyclohexyl)oxy)-1H-benzo[d]imidazole-5-carboxamide] | < 100 | < 100
13 | CCS(=O)(=O)c1ccc(CNC(=O)c2ccc3c(c2)nc(C[C@H]2CC[C@@H](C(F)(F)F)CC2)n3C2CC2)nc1 [BE-27.2, 1-cyclopropyl-N-((5-(ethylsulfonyl)pyridin-2-yl)methyl)-2-(((1s,4s)-4-(trifluoromethyl)cyclohexyl)methyl)-1H-benzo[d]imidazole-5-carboxamide] | > 1000 | < 100
14 | CCS(=O)(=O)c1ccc([C@H](CO)NC(=O)c2ccc3c(c2)nc(COC2CCC(C(F)(F)F)CC2)n3C2CC2)cc1 (single isomer, unassigned) [BE-71.1] | < 100 | < 100
15 | CCn1c(Oc2ccc(C(F)(F)F)cc2)nc2cc(C(=O)NCc3ccc(S(=O)(=O)CC)cc3)ccc21 [BE-5, 1-ethyl-N-(4-(ethylsulfonyl)benzyl)-2-(4-(trifluoromethyl)phenoxy)-1H-benzo[d]imidazole-5-carboxamide] | < 100 | < 100
16 | CCS(=O)(=O)c1ccc([C@H](CCO)NC(=O)c2ccc3c(c2)nc(C[C@H]2CC[C@H](C(F)(F)F)CC2)n3C2CC2)cc1 [BE-25, 1-cyclopropyl-N-((S)-1-(4-(ethylsulfonyl)phenyl)-3-hydroxypropyl)-2-(((1r,4S)-4-(trifluoromethyl)cyclohexyl)methyl)-1H-benzo[d]imidazole-5-carboxamide] | < 100 | < 100
17 | CCS(=O)(=O)c1ccc(CNC(=O)c2cnc3c(c2)nc(C[C@H]2CC[C@@H](C(F)(F)F)CC2)n3C2CC2)cc1 [AB-1.2, 3-cyclopropyl-N-(4-(ethylsulfonyl)benzyl)-2-(((1s,4s)-4-(trifluoromethyl)cyclohexyl)methyl)-3H-imidazo[4,5-b]pyridine-6-carboxamide] | > 1000 | < 100
18 | CCS(=O)(=O)c1ccc(CNC(=O)c2ccc3c(c2)nc(C[C@H]2CC[C@@H](OC)CC2)n3C2CC2)cc1 [BE-46.2, 1-cyclopropyl-N-(4-(ethylsulfonyl)benzyl)-2-(((1s,4s)-4-methoxycyclohexyl)methyl)-1H-benzo[d]imidazole-5-carboxamide] | > 1000 | < 100
19 | CCn1c(CN2CCC(C(F)(F)F)CC2)cc2cc(C(=O)N[C@@H](CO)c3ccc(S(=O)(=O)CC)cn3)ccc21 [IN-11, (R)-1-ethyl-N-(1-(5-(ethylsulfonyl)pyridin-2-yl)-2-hydroxyethyl)-2-((4-(trifluoromethyl)piperidin-1-yl)methyl)-1H-indole-5-carboxamide] | < 100 | < 100
20 | CCS(=O)(=O)c1ccc(CNC(=O)c2cnc3c(c2)nc(C[C@H]2CC[C@H](C(F)(F)F)CC2)n3C2CC2)cc1 [AB-1.1, 3-cyclopropyl-N-(4-(ethylsulfonyl)benzyl)-2-(((1r,4r)-4-(trifluoromethyl)cyclohexyl)methyl)-3H-imidazo[4,5-b]pyridine-6-carboxamide] | < 100 | < 100
21 | CCn1c(Oc2ccc(C(F)(F)F)cc2)nc2cc(C(=O)N[C@@H](CO)c3ccc(S(=O)(=O)CC)cc3)ccc21 [BE-8, (R)-1-ethyl-N-(1-(4-(ethylsulfonyl)phenyl)-2-hydroxyethyl)-2-(4-(trifluoromethyl)phenoxy)-1H-benzo[d]imidazole-5-carboxamide] | < 100 | < 100
22 | CCS(=O)(=O)c1ccc(CNC(=O)c2ccc3c(c2)nc(C(=O)c2ccc(C(F)(F)F)cc2)n3C2CC2)cc1 [BE-65, 1-cyclopropyl-N-(4-(ethylsulfonyl)benzyl)-2-(4-(trifluoromethyl)benzoyl)-1H-benzo[d]imidazole-5-carboxamide] | < 100 | < 100
23 | CCn1c(CN2CCC(C(F)(F)F)CC2)cc2cc(C(=O)N[C@@H](CO)c3ccc(S(=O)(=O)CC)cc3)ccc21 [IN-10, (R)-1-ethyl-N-(1-(4-(ethylsulfonyl)phenyl)-2-hydroxyethyl)-2-((4-(trifluoromethyl)piperidin-1-yl)methyl)-1H-indole-5-carboxamide] | < 100 | < 100
24 | CCn1c(C[C@H]2CC[C@H](C(F)(F)F)CC2)cc2cc(C(=O)N[C@@H](CO)c3ccc(S(=O)(=O)CC)cc3)ccc21 [IN-16.1, 1-ethyl-N-((R)-1-(4-(ethylsulfonyl)phenyl)-2-hydroxyethyl)-2-(((1r,4R)-4-(trifluoromethyl)cyclohexyl)methyl)-1H-indole-5-carboxamide] | < 100 | < 100
25 | CCS(=O)(=O)c1ccc(CNC(=O)c2ccc3c(c2)nc(Cc2ccc(Cl)cn2)n3C2CC2)cc1 [BE-52, 2-((5-chloropyridin-2-yl)methyl)-1-cyclopropyl-N-(4-(ethylsulfonyl)benzyl)-1H-benzo[d]imidazole-5-carboxamide] | > 1000 | < 100
